From patent US20070282004A1, “Use of a Cyclopentenone Prostaglandin for Delaying for the Onset and/or Preventing the Continuation of Labour” (Imperial College Innovations Limited, priority 2003, published 2007)

Legend:
PPAR-γ = biological target: T1, PPAR-γ (Homo sapiens, UniProt P37231); conditions: covalent modification of Cys285 (Leesnitzer et al., 2002); cited from earlier work
T1 sequence (P37231 1-505): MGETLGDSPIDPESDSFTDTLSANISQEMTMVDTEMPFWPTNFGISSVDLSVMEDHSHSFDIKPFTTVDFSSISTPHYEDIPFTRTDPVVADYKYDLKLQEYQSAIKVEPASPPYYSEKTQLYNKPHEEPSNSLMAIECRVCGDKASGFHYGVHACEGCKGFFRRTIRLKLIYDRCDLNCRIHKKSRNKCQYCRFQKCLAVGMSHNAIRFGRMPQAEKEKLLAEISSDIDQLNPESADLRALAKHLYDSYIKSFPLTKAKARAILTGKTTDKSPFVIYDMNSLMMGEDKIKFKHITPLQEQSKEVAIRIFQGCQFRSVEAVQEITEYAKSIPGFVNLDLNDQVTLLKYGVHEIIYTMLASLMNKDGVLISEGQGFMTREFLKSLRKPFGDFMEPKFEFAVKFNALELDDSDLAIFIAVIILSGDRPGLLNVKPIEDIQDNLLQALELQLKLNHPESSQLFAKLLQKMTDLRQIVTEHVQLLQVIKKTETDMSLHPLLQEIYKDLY

NF-κB [1] = biological target: T2, NF-κB (Homo sapiens, UniProt P19838+Q04206); assay: EMSA of NF-κB DNA binding in nuclear extracts of treated amnion cells; type: cell-based; conditions: amnion cells treated with 15d-PGJ2 in the presence of the PPAR-γ inhibitor
T2 construct: nuclear protein extracts from myometrial cells; endogenous in cells; host or cells: primary human myometrial cells (term, passage 1-4)
Description: (§1) Placentae were obtained from patients at term either at elective Caesarean section prior to labour (L−) or following spontaneous labour onset and vaginal delivery (L+). Amnion cells were prepared as described in Bennett et al., (1989). Briefly, the amnion was separated from the placenta, washed 3× in PBS, cut into strips, and incubated in 0.5 mM EDTA in PBS for 15 min. The strips were washed in PBS 2× and digested with 2.5 mg/ml dispase in serum-free DMEM for 35 min at 37° C. The amnion was then shaken vigorously in DMEM, 10% FCS to dissociate the cells, the remaining strips discarded, and the cell suspension pelleted at 175 g for 10 min and cultured in DMEM, 10% FCS (Sigma), 1% L-glutamine, 1% penicillin-streptomycin.
(§2) Nuclear and cytosolic protein extracts were obtained from cultured amnion cells as described by Schreiber et al (1989). For nuclear/cytosolic fractionation, confluent cell monolayers were scraped and lysed using a buffer containing 10 mM HEPES, 10 mM KCl, 0.1 mM EDTA, 0.1 mM EGTA, 2 mM DTT, 1% (v/v) NP-40 and complete protease inhibitor tablets (CPIs, Roche), diluted to manufacturer's instructions. Cell lysates were incubated on ice for 10 min and NP-40 added to a final concentration of 1% (v/v). Lysates were vortexed for 10 secs and centrifuged for 30 secs at 4° C., 12000 g. The supernatants were retained as the cytosolic protein extracts. The pellets were resuspended in buffer containing 10 mM HEPES, 10 mM KCl, 0.1 mM EDTA, 0.1 mM EGTA, 2 mM DTT, 400 mM NaCl, 1% NP-40 (v/v) and CPIs. Samples were shaken vigorously for 15 min in an ice bath. The nuclear protein extracts were obtained in the supernatant following a 5 min centrifugation at 4° C., 12000 g.
(§3) Sense and antisense strands (175 nmole/ml each) were incubated in annealing buffer (10 mM Tris-HCl pH7.5, 100 mM NaCl, 1 mM EDTA) for 10 min at 65° C., and allowed to cool at room temperature for 2 h. 3.5 pmole double-stranded oligonucleotides were end-labelled with 0.37 MBq ^32P(γATP) by incubating for 30 min at 37° C. with T4 polynucleotide kinase. Labelled oligonucleotides were recovered by centrifugation at 3000 rpm for 2 min through MicroSpin G-25 or G-50 sephadex columns (Amersham Biosciences).
(§4) 3-5 μg protein extracts were incubated on ice for 1 h with non-radiolabelled non-specific oligonucleotide (poly(dI-dC) or Oct-1) in a binding buffer (20% (v/V) glycerol, 5 mM MgCl2, 2 mM EDTA, 50 mM Tris-HCl pH7.5, 250 mM NaCl, 2 mM DTT), followed by a 45 min incubation with 0.035 pmole ^32P(γ(ATP)-end labelled oligonucleotide probes:
(§5) Oct-1 or SP-1 consensus sequences were used as a controls for a NF-κB-specific effect. The resulting protein/DNA complexes were separated in a 4% acrylamide gel, the gel dried under vacuum at 80° C. and exposed to X-ray film. For supershift analysis, samples were incubated with 2 μg antibodies for 30 min on ice prior to incubation with oligonucleotides. Non-radio-labelled oligonucleotides were used at 100-fold molar excess for specific and non-specific competition for DNA binding. Reagents for EMSA were obtained from Promega Life Sciences, Delta House, Chilworth Research Centre, Southampton SO16 7NS, United Kingdom.

PPARα = conditions: GAL4 chimera transfection system (Kehrer et al., 2001); cited from earlier work
NF-κB [2] = biological target: T2, NF-κB; assay: EMSA of NF-κB DNA binding in nuclear extracts of treated myometrial cells; type: cell-based; conditions: myometrial cells
Description: (§6) Myometrial tissue was collected at term from the upper margin of uterine incision at the time of lower segment caesarean section either prior to the onset of labour (L−) or […] (L+). L+ samples were collected by Dr Mark Johnson and Dr S Soorrana at Chelsea & Westminster Hospital. Myometrial tissue was dissected, rinsed in PBS, and digested in serum-free DMEM containing 15 mg/ml collagenase 1A (Sigma), 15 mg/ml collagenase X, and 50 mg/ml bovine serum albumin for 45 min at 37° C. The cell suspension was filtered through a cell strainer, centrifuged at 400 g for 5 min, and the pellet re-suspended and plated out in DMEM, 10% FCS (Helena BioScience), 1% L-glutainine, 1% penicillin-streptomycin. Cells were used between passage numbers 1-4.
as §2, §3, §4, §5

COX-2 = assay: Western immunoblot of IL-1β-induced COX-2 protein in myometrial cells; type: cell-based, human; conditions: treated 2 h, IL-1β 6 h
Description: as §6
Nuclear and cytosolic protein extracts were obtained from cultured amnion cells as described by Schreiber et al (1989). […]
Protein samples (20-70 μg) were mixed with Laemmli sample buffer (1:1) containing β-mercaptoethanol (5%), and boiled for 5 min. […] The blots were then incubated with HRP-conjugated secondary antibody (diluted 1:2000 in 1% non-fat milk in PBS-T buffer) for 1 h and washed three times (10 min each) in PBS-T. Signal detection was achieved using enhanced chemi-luminescence (ECL plus system, Amersham Pharmacia Biotech) according to manufacturer's instructions. […]

NF-κB [3] = assay: NF-κB-dependent luciferase reporter (κB.BG.Luc) in amnion cells; type: cell-based, human; conditions: L− or L+ amnion cells, treated 2 h, IL-1β 1 ng/ml 6 h
Description: . Values are normalised for b-gal reporter activity.
as §1
pGL3.6κB.BG.luc was the reporter construct used to assess NF-κB-mediated transcription, while the mutant pGL3.6κBmut.luc and empty pGL3.BG.luc were used as controls (Schwarzer et al., 1998).
pGL3.6κB.BG.luc: a NF-κB-dependent reporter construct with 6 copies of the NF-κB binding site. It contains two tandem repeats of the sequence 5′-GGG GAC TTT C CC TGGGGACTTTCCCTGGGGACTTTCCC-3′, which contains three copies of the decameric NF-κB binding site (underlined) upstream of a minimal β-globin promoter driving a luciferase gene.
Cells were co-transfected with the renilla vector pRL-CMV or β-galactosidase vector pCH110 as internal controls for transfection efficiencies.

T2 sequence (Q04206 whole entry): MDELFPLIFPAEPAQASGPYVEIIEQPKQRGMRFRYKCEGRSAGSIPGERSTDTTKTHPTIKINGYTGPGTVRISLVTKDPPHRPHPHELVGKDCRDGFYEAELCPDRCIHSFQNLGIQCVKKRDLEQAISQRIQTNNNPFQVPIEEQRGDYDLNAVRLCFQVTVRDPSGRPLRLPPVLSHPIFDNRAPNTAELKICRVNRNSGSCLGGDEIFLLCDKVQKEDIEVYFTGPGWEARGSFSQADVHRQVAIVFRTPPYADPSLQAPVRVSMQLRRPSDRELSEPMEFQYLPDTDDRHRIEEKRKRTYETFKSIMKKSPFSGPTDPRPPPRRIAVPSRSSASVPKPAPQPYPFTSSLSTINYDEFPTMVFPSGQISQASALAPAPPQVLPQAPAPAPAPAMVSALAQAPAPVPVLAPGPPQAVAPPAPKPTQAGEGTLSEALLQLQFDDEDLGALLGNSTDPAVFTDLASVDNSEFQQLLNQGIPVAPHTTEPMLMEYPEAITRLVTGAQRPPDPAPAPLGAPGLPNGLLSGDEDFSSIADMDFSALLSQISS
T2 sequence (P19838 1-433 limits assumed): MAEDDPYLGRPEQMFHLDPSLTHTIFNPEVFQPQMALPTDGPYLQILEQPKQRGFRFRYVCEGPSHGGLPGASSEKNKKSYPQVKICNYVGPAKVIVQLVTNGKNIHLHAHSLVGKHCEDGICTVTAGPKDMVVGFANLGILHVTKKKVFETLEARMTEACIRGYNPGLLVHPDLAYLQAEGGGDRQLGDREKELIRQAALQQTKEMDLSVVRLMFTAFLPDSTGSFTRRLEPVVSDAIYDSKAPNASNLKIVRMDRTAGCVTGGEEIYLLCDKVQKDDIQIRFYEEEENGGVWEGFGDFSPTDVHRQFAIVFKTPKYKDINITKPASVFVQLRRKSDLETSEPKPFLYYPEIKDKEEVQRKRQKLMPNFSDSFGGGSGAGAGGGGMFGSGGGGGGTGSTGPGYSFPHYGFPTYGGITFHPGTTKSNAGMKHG

Alleviation of 15d-PGJ2 inhibition of NF-κB DNA binding (NF-κB [1]) | Alleviation of 15d-PGJ2 inhibition of NF-κB DNA binding (NF-κB [1]; listed as GW9662) | NF-κB DNA binding (EMSA) (NF-κB [2]; 10-100 μM concentrations) | IL-1β-induced NF-κB DNA binding (EMSA) (NF-κB [2]; treated 2 h, then IL-1β 15 min) | SMILES | Binding to PPAR-γ (PPAR-γ) | Doses that transactivate PPARα (PPARα) | IL-1β-induced COX-2 expression (COX-2) | IL-1β-induced NF-κB transcriptional activity (κB.BG.Luc reporter) (NF-κB [3])
failed to alleviate | does not alleviate |  |  | O=C(Nc1ccccc1)c1cc([N+](=O)[O-])ccc1Cl [GW-9662, reference compound] | binds irreversibly |  |  | 
 |  | had no effect | do not inhibit | Cc1cccc(Nc2cc(Cl)nc(SCC(=O)O)n2)c1C [WY-14643, reference compound] |  | 5 to 25 µM | not | did not
